These results are taken from ChEMBL document CHEMBL3108686, “Cytotoxic dammarane-type triterpenoids from the stem bark of Dysoxylum binecteriferum” (J Nat Prod, 2014).

The IC50 is the concentration that inhibits the measured activity by half.

Molecules are shown by their SMILES.

For one assay, the system named is A549. Briefly: cells. Particulars: Homo sapiens, A549, 48 h.
In another assay the test system is RAW264.7. Kind of assay: Antiinflammatory activity in mouse RAW264.7 cells assessed as inhibition of LPS-stimulated nitric oxide production after 24 hrs by Griess assay. Type of assay: functional, cell-based. The conditions noted are these: RAW264.7, 24 h.
A further assay has as its system HepG2. Kind of assay: Cytotoxicity against human HepG2 cells assessed as cell viability after 48 hrs by MTT assay. Type of assay: functional, cell-based. Particulars: HepG2, 48 h. On the technique in general: Tetrazolium assays rely on reduction of a dye to a coloured formazan, in cell work by metabolically active cells.
The test system of the next assay is MCF7. Briefly: Cytotoxicity against human MCF7 cells assessed as cell viability after 48 hrs by MTT assay. The assay is classed as functional, cell-based. Particulars: MCF7, 48 h.

Description for A549: Cytotoxicity against human A549 cells assessed as cell viability after 48 hrs by MTT assay

Consider `C=C(C)[C@@H]1CC[C@]2(C)[C@H](CC[C@@H]3[C@@H]([C@]4(C)CCC(=O)O4)CC[C@]32C)[C@@]1(C)CCC(=O)OC`, for which the concentration for half-maximal inhibition (IC50) is over 50 µM in the assay on A549, 31.8 µM in the assay on RAW264.7, over 50 µM with HepG2 and over 50 µM with MCF7.
Take `CCOC(=O)CC[C@@]1(C)[C@H]([C@@](C)(O)CO)CC[C@]2(C)[C@@H]1CC[C@@H]1[C@@H]([C@]3(C)CC[C@H](C(C)(C)O)O3)CC[C@]12C`: the half-maximal inhibitory concentration (IC50) with A549 was over 50 µM; in the assay on RAW264.7, 57.7 µM; with HepG2, over 50 µM; in the assay on MCF7 it was over 50 µM.
Turning to `CCOC(=O)CC[C@@]1(C)[C@H]([C@@](C)(O)CO)CC[C@]2(C)[C@@H]1CC[C@@H]1[C@@H]([C@]3(C)CC[C@@H](C(C)(C)O)O3)CC[C@]12C`, the IC50 in the assay on A549 was over 50 µM; in the assay with RAW264.7 it was over 100 µM; with HepG2 it was over 50 µM; in the assay on MCF7 it was over 50 µM.
Turning to `CC(C)(O)[C@@H]1CC[C@@](C)([C@H]2CC[C@]3(C)[C@@H]2CC[C@@H]2[C@@]4(C)CCC(=O)C(C)(C)[C@@H]4C[C@H](O)[C@]23C)O1`, the half-inhibitory concentration (IC50) with A549 is over 50 µM; in the assay with RAW264.7, over 100 µM; in the assay with HepG2, over 50 µM; with MCF7, over 50 µM.
`C=C(C)[C@@H]1CC[C@]2(C)[C@H](CC[C@@H]3[C@@H]([C@]4(C)CC[C@@H](C(C)(C)O)O4)CC[C@]32C)[C@@]1(C)CCC(=O)OC`: the IC50 with A549 is over 50 µM; in the assay on RAW264.7 it was over 100 µM; in the assay on HepG2, over 50 µM; in the assay on MCF7, over 50 µM.
Take `CC(C)(O)[C@@H]1CC[C@@](C)([C@H]2CC[C@]3(C)[C@@H]2CC[C@@H]2[C@@]4(C)CCC(=O)[C@](C)(CO)[C@@H]4CC[C@]23C)O1`: the IC50 was over 50 µM with A549, over 100 µM in the assay with RAW264.7, over 50 µM in the assay with HepG2 and over 50 µM in the assay with MCF7.
Turning to `CC1(C)[C@H](O)CC[C@]2(C)[C@H]3CC[C@@H]4[C@@H]([C@]5(C)CCC(=O)O5)CC[C@@]4(C)[C@]3(C)CC[C@@H]12` [CABRALEAHYDROXYLACTONE], the IC50 with A549 is over 50 µM; with RAW264.7, over 100 µM; in the assay on HepG2, over 50 µM; in the assay on MCF7, over 50 µM.
Take `C=C(C)[C@@H]1CC[C@]2(C)[C@H](CC[C@@H]3[C@@H]([C@]4(C)CCC(=O)O4)CC[C@]32C)[C@@]1(C)CCC(=O)O`: the IC50 in the assay on A549 was over 50 µM; with RAW264.7 it was over 100 µM; in the assay on HepG2 it was over 50 µM; in the assay on MCF7, over 50 µM.
On to `CCOC(=O)CC[C@@]1(C)[C@H]([C@](C)(O)CO)CC[C@]2(C)[C@@H]1CC[C@@H]1[C@@H]([C@]3(C)CC[C@H](C(C)(C)O)O3)CC[C@]12C`, for which the IC50 in the assay with A549 is over 50 µM; in the assay on RAW264.7, over 100 µM; with HepG2, over 50 µM; in the assay on MCF7, over 50 µM.
In the case of `CC1(C)[C@H](O)CC[C@]2(C)[C@H]3CC[C@@H]4[C@@H]([C@]5(C)C=CC(=O)O5)CC[C@@]4(C)[C@]3(C)CC[C@@H]12`, the IC50 in the assay with A549 was over 50 µM; with RAW264.7, over 100 µM; in the assay on HepG2, over 50 µM; in the assay on MCF7, over 50 µM.
For `CC(C)(O)[C@H]1CC[C@@](C)([C@H]2CC[C@]3(C)[C@@H]2CC[C@@H]2[C@@]4(C)CC[C@@H](O)C(C)(C)[C@@H]4CC[C@]23C)O1`, the half-maximal inhibitory concentration (IC50) in the assay with A549 is over 50 µM; in the assay with RAW264.7, over 100 µM; in the assay with HepG2, over 50 µM; in the assay on MCF7, over 50 µM.
Take `CC(C)(O)[C@H]1CC[C@@](C)([C@H]2CC[C@]3(C)[C@@H]2CC[C@@H]2[C@@]4(C)CCC(=O)[C@@](C)(CO)[C@@H]4CC[C@]23C)O1`: the IC50 in the assay with A549 is over 50 µM; in the assay with RAW264.7, over 100 µM; in the assay with HepG2, over 50 µM; in the assay on MCF7 it was over 50 µM.
Regarding `CC1(C)C(=O)CC[C@]2(C)[C@H]3CC[C@@H]4[C@@H]([C@]5(C)CCC(=O)O5)CC[C@@]4(C)[C@]3(C)CC[C@@H]12` [CABRALELACTONE], the IC50 was over 50 µM with A549, over 100 µM in the assay on RAW264.7, over 50 µM in the assay on HepG2 and over 50 µM in the assay on MCF7.
Take `C=C(C)[C@@H]1CC[C@]2(C)[C@H](CC[C@@H]3[C@@H]([C@]4(C)CC[C@H](C(C)(C)O)O4)CC[C@]32C)[C@@]1(C)CCC(=O)OC` [METHYL SHOREATE]: the IC50 in the assay on A549 was 12.9 µM; in the assay on RAW264.7, over 100 µM; with HepG2, 6.3 µM; in the assay on MCF7 it was 5.6 µM.
As for `CC(C)(O)[C@@H]1CC[C@@](C)([C@H]2CC[C@]3(C)[C@@H]2CC[C@@H]2[C@@]4(C)CCC(=O)[C@@](C)(CO)[C@@H]4CC[C@]23C)O1`, the 50% inhibitory concentration (IC50) is 28.2 µM with A549, over 100 µM in the assay on RAW264.7, 6.5 µM in the assay with HepG2 and 18.3 µM in the assay with MCF7.
In the case of `C=C(CO)[C@@H]1CC[C@]2(C)[C@H](CC[C@@H]3[C@@H]([C@]4(C)CC[C@@H](C(C)(C)O)O4)CC[C@]32C)[C@@]1(C)CCC(=O)OC`, the IC50 is over 50 µM in the assay on A549, over 100 µM with RAW264.7, 28 µM in the assay on HepG2 and over 50 µM in the assay on MCF7.
Take `CC(C)(O)[C@H]1CC[C@@](C)([C@H]2CC[C@]3(C)[C@@H]2CC[C@@H]2[C@@]4(C)CC[C@@H](O)[C@@](C)(CO)[C@@H]4CC[C@]23C)O1`: the concentration for half-maximal inhibition (IC50) is over 50 µM in the assay on A549, over 100 µM in the assay on RAW264.7, over 50 µM with HepG2 and 23 µM in the assay on MCF7.
For `CC1(C)C(=O)CC[C@]2(C)[C@H]3CC[C@@H]4[C@@H]([C@]5(C)C[C@H](O)C(=O)O5)CC[C@@]4(C)[C@]3(C)CC[C@@H]12`, the concentration for half-maximal inhibition (IC50) in the assay on A549 is 12.4 µM; in the assay with RAW264.7, over 100 µM; in the assay with HepG2 it was 8 µM; with MCF7, 26.7 µM.
As to `C=C(CC[C@H](O)C(C)(C)O)[C@H]1CC[C@]2(C)[C@@H]1CC[C@@H]1[C@@]3(C)CC[C@@H](O)C(C)(C)[C@@H]3CC[C@]12C`, the IC50 in the assay on A549 is 35 µM; with RAW264.7 it was over 100 µM; in the assay on HepG2, 5.9 µM; in the assay with MCF7, 16.7 µM.
In the case of `CC(C)(O)[C@@H]1CC[C@@](C)([C@H]2CC[C@]3(C)[C@@H]2CC[C@@H]2[C@@]4(C)CC[C@@H](O)[C@@](C)(CO)[C@@H]4CC[C@]23C)O1`, the IC50 with A549 was over 50 µM; with RAW264.7, 64.9 µM; in the assay with HepG2, 20.2 µM; in the assay on MCF7, 30.4 µM.
For `C=C(C)[C@@H]1CC[C@]2(C)[C@H](CC[C@@H]3[C@@H]([C@]4(C)CC[C@H](C(C)(C)O)O4)CC[C@]32C)[C@@]1(C)CCC(=O)OCC` the same measures were 12.9 µM, over 100 µM, 14.9 µM and 18.4 µM.
As to `CCOC(=O)CC[C@@]1(C)[C@H]([C@](C)(O)CO)CC[C@]2(C)[C@@H]1CC[C@@H]1[C@@H]([C@]3(C)CC[C@@H](C(C)(C)O)O3)CC[C@]12C`, the concentration for half-maximal inhibition (IC50) in the assay with A549 was over 50 µM; in the assay with RAW264.7, over 100 µM; with HepG2, over 50 µM; in the assay on MCF7 it was over 50 µM.
As to `C=C(C)[C@@H]1CC[C@]2(C)[C@H](CC[C@@H]3[C@@H]([C@]4(C)CCC(=O)O4)CC[C@]32C)[C@@]1(C)CCC(=O)OCC`, the IC50 in the assay on A549 was over 50 µM; in the assay on RAW264.7, over 100 µM; with HepG2 it was 38.4 µM; with MCF7, over 50 µM.
Turning to `C=C(C)[C@@H]1CC[C@]2(C)[C@H](CC[C@@H]3[C@@H]([C@]4(C)CC[C@H](O)C(C)(C)O4)CC[C@]32C)[C@@]1(C)CCC(=O)OC`, the 50% inhibitory concentration (IC50) is over 50 µM in the assay on A549, over 100 µM in the assay with RAW264.7, over 50 µM in the assay on HepG2 and over 50 µM with MCF7.
Turning to `CC(C)(O)[C@@H]1CC[C@@](C)([C@H]2CC[C@]3(C)[C@@H]2CC[C@@H]2[C@@]4(C)CC[C@@H](O)C(C)(C)[C@@H]4CC[C@]23C)O1`, the IC50 with A549 is over 50 µM; in the assay with RAW264.7, over 100 µM; with HepG2 it was over 50 µM; with MCF7, over 50 µM.
